According to patent publication US20250388565A1, “ESTROGEN RECEPTOR ALPHA DEGRADERS AND METHODS OF USE THEREOF” (Relay Therapeutics, Inc., priority 2022, published 2025):

Biological target: T1, ERα protein (HiBiT-tagged) in ESR1_HiBiT KI MCF7 cells (Homo sapiens, UniProt P03372)
T1 sequence (P03372 1-595): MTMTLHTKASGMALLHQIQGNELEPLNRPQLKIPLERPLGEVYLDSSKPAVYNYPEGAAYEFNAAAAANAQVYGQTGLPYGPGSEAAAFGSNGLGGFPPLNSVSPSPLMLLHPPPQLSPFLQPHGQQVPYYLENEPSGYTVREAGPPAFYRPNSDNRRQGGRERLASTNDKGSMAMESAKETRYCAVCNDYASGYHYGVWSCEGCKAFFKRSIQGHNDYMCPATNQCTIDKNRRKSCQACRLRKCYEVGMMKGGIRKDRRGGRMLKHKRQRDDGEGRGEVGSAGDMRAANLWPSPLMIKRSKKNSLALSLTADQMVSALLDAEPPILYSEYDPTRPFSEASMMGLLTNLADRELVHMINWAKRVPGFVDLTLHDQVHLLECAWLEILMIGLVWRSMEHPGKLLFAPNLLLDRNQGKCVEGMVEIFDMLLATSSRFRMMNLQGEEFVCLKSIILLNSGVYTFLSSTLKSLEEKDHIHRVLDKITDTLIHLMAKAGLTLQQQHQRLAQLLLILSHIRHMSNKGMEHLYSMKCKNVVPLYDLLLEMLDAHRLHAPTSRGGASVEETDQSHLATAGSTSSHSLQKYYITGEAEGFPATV
Assay: Nano Glo HiBiT Lytic Degradation Assay
Assay type: cell-based
Settings: 6 hours with compound, 14-point dose response 1:3, bell-shape curve fit, half-maximal effect of first Hill model, read-out: MCF7 ESR1 HiBiT - (DC50)
Summary of the method: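 Lytic Nano-Glo HiBiT luminescence quantified ERα remaining after a 6 h, 37° C compound exposure of MCF7 cells carrying endogenous HiBiT-tagged ESR1. Dosing used 14 threefold dilutions from a 10 mM DMSO stock (0.1% DMSO final), run in duplicate. Signals were corrected for cell-free background and expressed relative to DMSO, and DC50 came from a bell-shaped curve fit (first Hill model half-maximum).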

Compound: O=C1CC[C@H](N2Cc3cc(N4CCN(CC5CCN(c6ccc([C@H]7c8ccc(O)cc8C(F)(F)C[C@H]7c7ccccc7)c(F)c6)CC5)CC4)ccc3C2=O)C(=O)N1 [Compound I-307, (S)-3-(5-(4-((1-(4-((1R,2R)-4,4-difluoro-6-hydroxy-2-phenyl-1,2,3,4-tetrahydronaphthalen-1-yl)-3-fluorophenyl)piperidin-4-yl)methyl)piperazin-1-yl)-1-oxoisoindolin-2-yl)piperidine-2,6-dione]
- DC50: 19 nM

Compound: Cc1cc(F)cc(C)c1[C@@H]1CCc2cc(O)ccc2[C@@H]1c1ccc(N2CCC(CN3CCN(c4ccc5c(c4)CN([C@H]4CCC(=O)NC4=O)C5=O)CC3)CC2)cc1 [II-71]
- DC50: ≥ 10000 nM

Compound: O=C1CC[C@H](N2Cc3cc(N4CCN(CC5CCN(c6ccc([C@H]7c8ccc(O)cc8C(F)(F)C[C@H]7c7ccccc7F)cc6)CC5)CC4)ccc3C2=O)C(=O)N1 [Compound I-313, (S)-3-(5-(4-((1-(4-((1S,2R)-4,4-difluoro-2-(2-fluorophenyl)-6-hydroxy-1,2,3,4-tetrahydronaphthalen-1-yl)phenyl)piperidin-4-yl)methyl)piperazin-1-yl)-1-oxoisoindolin-2-yl)piperidine-2,6-dione]
- DC50: 15 nM

Compound: O=C1CC[C@H](N2Cc3cc(N4CCN(CC5CCN(c6ccc([C@H]7c8ccc(O)cc8CO[C@H]7c7ccc(C(F)(F)F)cc7)cc6)CC5)CC4)ccc3C2=O)C(=O)N1 [Compound I-350, (S)-3-(5-(4-((1-(4-((3R,4S)-7-hydroxy-3-(4-(trifluoromethyl)phenyl)isochroman-4-yl)phenyl)piperidin-4-yl)methyl)piperazin-1-yl)-1-oxoisoindolin-2-yl)piperidine-2,6-dione]
- DC50: 20 nM

Compound: O=C1CC[C@H](N2Cc3cc(N4CCN(CC5CCN(c6ccc([C@H]7c8ccc(O)cc8CO[C@@H]7c7ccc(O)cc7)cc6)CC5)CC4)ccc3C2=O)C(=O)N1 (single isomer, unassigned) [Compound I-359, (S)-3-(5-(4-((1-(4-((3R*,4R*)-7-hydroxy-3-(4-hydroxyphenyl)isochroman-4-yl)phenyl)piperidin-4-yl)methyl)piperazin-1-yl)-1-oxoisoindolin-2-yl)piperidine-2,6-dione]
- DC50: 0.16 nM

Compound: Cc1cc([C@H]2CCc3cc(O)ccc3[C@H]2c2ccc(N3CCC(CN4CCN(c5ccc6c(c5)CN([C@H]5CCC(=O)NC5=O)C6=O)CC4)CC3)cc2)n(C)n1 (single isomer, unassigned) [Compound I-414]
- DC50: 0.37 nM

Compound: C[C@@H]1Cc2cc(O)ccc2[C@@H](c2ccc(N3CCC(CN4CCN(c5ccc6c(c5)CN([C@H]5CCC(=O)NC5=O)C6=O)CC4)CC3)cc2)[C@H]1c1ccccc1 [Compound I-175, (S)-3-(5-(4-((1-(4-((1R,2S,3R)-6-hydroxy-3-methyl-2-phenyl-1,2,3,4-tetrahydronaphthalen-1-yl)phenyl)piperidin-4-yl)methyl)piperazin-1-yl)-1-oxoisoindolin-2-yl)piperidine-2,6-dione]
- DC50: 0.77 nM

Compound: Cc1cc(F)cc(F)c1[C@@H]1CCc2cc(O)ccc2[C@@H]1c1ccc(N2CCC(CN3CCN(c4ccc5c(c4)CN([C@H]4CCC(=O)NC4=O)C5=O)CC3)CC2)cc1 [II-73]
- DC50: 361 nM

Compound: O=C1CC[C@H](N2Cc3cc(N4CCN(CC5CCN(c6ccc([C@@H]7c8ccc(O)cc8COC78CCCCC8)cc6)CC5)CC4)ccc3C2=O)C(=O)N1 [Compound I-123, (S)-3-(5-(4-((1-(4-((R)-7′-hydroxyspiro[cyclohexane-1,3′-isochroman]-4′-yl)phenyl)piperidin-4-yl)methyl)piperazin-1-yl)-1-oxoisoindolin-2-yl)piperidine-2,6-dione]
- DC50: 0.31 nM

Compound: C[C@@H]1C[C@H](c2ccccc2)[C@H](c2ccc(N3CCC(CN4CCN(c5ccc6c(c5)CN([C@H]5CCC(=O)NC5=O)C6=O)CC4)CC3)cc2)c2ccc(O)cc21 (single isomer, unassigned) [Compound I-419]
- DC50: 2 nM

Compound: Cc1cc([C@@H]2c3ccc(O)cc3CC[C@@H]2c2ccccc2)ccc1N1CCC(CN2CCN(c3ccc4c(c3)CN([C@H]3CCC(=O)NC3=O)C4=O)CC2)CC1 (single isomer, unassigned) [II-42]
- DC50: ≥ 10000 nM

Compound: CC(C)C[C@H]1OCc2cc(O)ccc2[C@@H]1c1ccc(N2CCC(CN3CCN(c4ccc5c(c4)CN([C@H]4CCC(=O)NC4=O)C5=O)CC3)CC2)cc1 (single isomer, unassigned) [Compound I-223]
- DC50: 10 nM

Compound: CC1(C)CCC([C@@H]2CCc3cc(O)ccc3[C@@H]2c2ccc(N3CCC(CN4CCN(c5ccc6c(c5)CN([C@H]5CCC(=O)NC5=O)C6=O)CC4)CC3)cc2)CC1 (single isomer, unassigned) [Compound I-106]
- DC50: 1030 nM

Compound: O=C1CC[C@H](c2ccc(N3CCC4(CCN(CC5CCN(c6ccc([C@@H]7c8ccc(O)cc8C(F)(F)C[C@@H]7c7ccccc7)cc6)CC5)C4)CC3)cc2)C(=O)N1 (single isomer, unassigned) [Compound I-285]
- DC50: 0.27 nM

Compound: O=C1CC[C@H](N2Cc3cc(N4CCN(CC5CCN(c6ccc([C@H]7c8ccc(O)cc8CC[C@H]7c7ccccc7)cn6)CC5)CC4)ccc3C2=O)C(=O)N1 [II-79]
- DC50: ≥ 10000 nM

Compound: O=C1CCN(c2ccc(N3CC[C@]4(CCN(CC5CCN(c6ccc([C@@H]7c8ccc(O)cc8CC[C@@H]7c7ccccc7)cc6)CC5)C4)C3)cc2)C(=O)N1 (single isomer, unassigned) [Compound I-287]
- DC50: ≥ 10000 nM

Compound: O=C1CC[C@H](N2Cc3cc(N4CCN(CC5CCN(c6cc(F)c([C@@H]7c8ccc(O)cc8CC[C@@H]7C7CCCCC7)c(F)c6)CC5)CC4)ccc3C2=O)C(=O)N1 [Compound I-119, (S)-3-(5-(4-((1-(4-((1S,2R)-2-cyclohexyl-6-hydroxy-1,2,3,4-tetrahydronaphthalen-1-yl)-3,5-difluorophenyl)piperidin-4-yl)methyl)piperazin-1-yl)-1-oxoisoindolin-2-yl)piperidine-2,6-dione]
- DC50: 6 nM

Compound: Cc1c(F)cccc1[C@@H]1OCc2cc(O)ccc2[C@@H]1c1ccc(N2CCC(CN3CCN(c4ccc5c(c4)CN([C@H]4CCC(=O)NC4=O)C5=O)CC3)CC2)cc1 (single isomer, unassigned) [Compound I-380]
- DC50: 77 nM

Compound: Cc1cc(F)cc([C@@H]2OCc3cc(O)ccc3[C@@H]2c2ccc(N3CCC(CN4CCN(c5ccc6c(c5)CN([C@H]5CCC(=O)NC5=O)C6=O)CC4)CC3)cc2)c1 [Compound I-378, (S)-3-(5-(4-((1-(4-((3R,4S)-3-(3-fluoro-5-methylphenyl)-7-hydroxyisochroman-4-yl)phenyl)piperidin-4-yl)methyl)piperazin-1-yl)-1-oxoisoindolin-2-yl)piperidine-2,6-dione]
- DC50: ≥ 10000 nM

Compound: O=C1CC[C@H](N2Cc3cc(N4CCN(CC5CCN(c6ccc([C@@H]7c8ccc(C(=O)O)cc8CC[C@@H]7c7ccccc7)cc6)CC5)CC4)ccc3C2=O)C(=O)N1 (single isomer, unassigned) [Compound I-2]
- DC50: ≥ 10000 nM

Compound: O=C1CC[C@@H](c2ccc(N3CCC4(CCN(CC5CCN(c6ccc([C@@H]7c8ccc(O)cc8C(F)(F)C[C@@H]7c7ccccc7)cc6)CC5)C4)CC3)cc2)C(=O)N1 (single isomer, unassigned) [Compound I-286]
- DC50: 91.1 nM

Compound: O=C1CC[C@H](N2Cc3cc(N4CCN(C5CCN(c6ccc([C@@H]7c8ccc(O)cc8CC[C@@H]7c7ccccc7)cc6)CC5)CC4)ccc3C2=O)C(=O)N1 [II-31]
- DC50: 0.9 nM

Compound: Cc1cc(F)ccc1[C@@H]1OCc2cc(O)ccc2[C@@H]1c1ccc(N2CCC(CN3CCN(c4ccc5c(c4)CN([C@H]4CCC(=O)NC4=O)C5=O)CC3)CC2)cc1 [Compound I-372, (S)-3-(5-(4-((1-(4-((3R,4S)-3-(4-fluoro-2-methylphenyl)-7-hydroxyisochroman-4-yl)phenyl)piperidin-4-yl)methyl)piperazin-1-yl)-1-oxoisoindolin-2-yl)piperidine-2,6-dione]
- DC50: 27 nM

Compound: CC(C)C[C@H]1CC(F)(F)c2cc(O)ccc2[C@H]1c1ccc(N2CCC(CN3CCN(c4ccc5c(c4)CN([C@H]4CCC(=O)NC4=O)C5=O)CC3)CC2)cc1 [Compound I-197, (S)-3-(5-(4-((1-(4-((1R,2S)-4,4-difluoro-6-hydroxy-2-isobutyl-1,2,3,4-tetrahydronaphthalen-1-yl)phenyl)piperidin-4-yl)methyl)piperazin-1-yl)-1-oxoisoindolin-2-yl)piperidine-2,6-dione]
- DC50: 0.49 nM

Compound: O=C1CC[C@H](N2Cc3cc(N4CCN(CC5CCN(c6ccc([C@@H]7c8ccc(O)cc8CC[C@@H]7CC7CCCC7)cc6)CC5)CC4)ccc3C2=O)C(=O)N1 [Compound I-121, (S)-3-(5-(4-((1-(4-((1R,2R)-2-(cyclopentylmethyl)-6-hydroxy-1,2,3,4-tetrahydronaphthalen-1-yl)phenyl)piperidin-4-yl)methyl)piperazin-1-yl)-1-oxoisoindolin-2-yl)piperidine-2,6-dione]
- DC50: 3 nM
